The values below are quoted from earlier work in patent US5053431A, “Derivatives of chrysophanol as topoisomerase II inhibitors” (Sloan-Kettering Institute For Cancer Research, priority 1990, dated 1991).

Common to all, as to settings: literature; cited from earlier work
For one data set, the system named is cancer.
A further data set relates to peroxidases.
The subject of data set [1] is proteins, polyadenylate, RNA, DNA.

`Cc1c2cc[n+](C)cc2c(C)c2c1[nH]c1ccc(O)cc12` [9-OH-NME, 2-N-Methyl-9-hydroxyellipticinium]: the anticancer activity entry in the data set on cancer is listed as “one of the most active drugs among the ellipticine analogues”. Further, the oxidation by peroxidases entry in the data set with peroxidases is “easily oxidized by peroxidases”.
With `Cc1c2c(c(C)c3c[n+](C)ccc13)C1=CC(=O)C=CC1=N2` [9-oxo-NME, 9-oxo-2-methylellipticinium], the alkylation of macromolecules result in data set [1] is given as “easily alkylated by 9-oxo-NME”.
